Data as given in paper PMC7284125, “Identification of annotated bioactive molecules that impair motility of the blood fluke Schistosoma mansoni” (International Journal for Parasitology: Drugs and Drug …, 2020).
Read-outs that look alike come from different tables or passages of the source. Residues, ends and D or L forms follow the SMILES beside them. *: point of attachment. Cbz = O=C(OCc1ccccc1)*

Assays:
[1] = tested on: S. mansoni schistosomulae; test: Phenotypic primary screen assay on schistosomulae (phenotype; viability by methylene blue dye exclusion); assay type: cell-based, Schistosoma mansoni; conditions: for effect on viability of schistosomulae in words: 24 h incubation, five days; for Phenotype: estimated 5 days post compound exposure
How it was run: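 Parasites lacking contraction/relaxation cycles and showing dark internal granulations counted as dead. Movement and body shape were compared with DMSO-treated controls under a stereo microscope at 24 h and at five days of exposure. Larvae came from infected snails shed under light for 2 h at 32 °C.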

[2] = tested on: S. mansoni schistosomulae; test: Motility assay on schistosomulae (pixel displacement, relative to DMSO control); assay type: cell-based, Schistosoma mansoni; conditions: for activity at 1 µM: Schistosoma mansoni, read-out: Fractional motility
How it was run: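 Mechanically transformed S. mansoni schistosomulae (200/well) in Opti-MEM with 5% dialyzed FBS were exposed to compounds at 1 and 10 μM for 24 h at 37 °C, 5% CO2. Motility filmed at 10 frames/s for 1 min and quantified by pixel displacement relative to DMSO-treated controls.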

[3] = tested on: S. mansoni schistosomulae; test: Phenotypic primary screen assay on schistosomulae (phenotype; viability by methylene blue dye exclusion); assay type: cell-based; conditions: Schistosoma mansoni; three-day-old schistosomulae, 10 μM, 24 h; calculated 5 days post compound exposure; read-out: Viability (%)
S. mansoni adult worms = test: Motility assay on adult parasites (pixel displacement, relative to DMSO control); assay type: cell-based, Schistosoma mansoni; conditions: 10 μM; for motility phenotype in words: adults, long-term after washout; for Fractional motility: secondary screen
How it was run: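 Unpaired adult worms from mice 6 weeks post-infection kept in OPTI-MEM with 5% dialyzed FBS and exposed to compounds at 1 and 10 μM for 24 h. Motility filmed 1 min at 10 frames/s, quantified by pixel displacement versus DMSO-treated worms; recovery followed up to five days after washout.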

schistosomes [4] = tested on: schistosomes; parameters: method as in de Almeida et al., 2016; conditions: 12.5–100 μM; ref de Almeida et al., 2016; cited from earlier work
schistosomulae [5] = tested on: schistosomulae; parameters: method as in El-Sakkary et al., 2018; conditions: 20 min exposure, 10 μM; ref El-Sakkary et al., 2018; cited from earlier work
schistosomes [6] = tested on: schistosomes; parameters: method as in Guerra-Sa et al., 2005; conditions: treated mice; ref Guerra-Sa et al., 2005; cited from earlier work
Sm5HTR = Sm5HTR (Schistosoma mansoni, UniProt G4V5G4); test: cAMP luminescence (GloSensor) assay, HEK293 cells expressing Sm5HTR; assay type: cell-based, S. mansoni; conditions: compound incubation followed by 50 μM 5-HT
Sm5HTR, sequence (G4V5G4 entry or part of it): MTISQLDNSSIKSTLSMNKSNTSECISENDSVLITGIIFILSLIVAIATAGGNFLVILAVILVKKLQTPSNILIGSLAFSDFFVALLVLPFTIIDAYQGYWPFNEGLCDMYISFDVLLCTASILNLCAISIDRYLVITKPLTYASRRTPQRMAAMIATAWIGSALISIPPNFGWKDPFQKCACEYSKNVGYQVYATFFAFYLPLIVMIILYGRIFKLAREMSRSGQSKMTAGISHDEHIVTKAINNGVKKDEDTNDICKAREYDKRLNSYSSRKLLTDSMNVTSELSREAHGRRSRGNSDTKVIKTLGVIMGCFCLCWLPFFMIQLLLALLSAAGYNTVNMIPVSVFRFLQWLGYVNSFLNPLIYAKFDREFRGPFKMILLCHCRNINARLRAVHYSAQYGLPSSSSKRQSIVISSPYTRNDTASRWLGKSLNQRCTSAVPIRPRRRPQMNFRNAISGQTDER

[7] = tested on: naïve Glo HEK293 cells (no receptor); test: cAMP luminescence (GloSensor) assay on naïve Glo HEK293 cells (no receptor); assay type: cell-based, human; conditions: 20 μM forskolin
Protocol: The SmGPR2 sequence previously identified ([El-Shehabi and Ribeiro, 2010]) was codon optimized for mammalian expression and subcloned in the vector pCI-neo (Addgene, USA) using the XbaI and NotI restriction enzymes. A FLAG fusion tag ([…]) was introduced at the N-terminal end of the receptor sequence. Stable transfection of HEK293 cells (ATCC; CRL-1573) was performed using the X-tremeGENE 9 DNA transfection reagent (Sigma Aldrich). Cells were then cultured at 37 °C, 5% CO2 in Opti-MEM supplemented with 5% FBS and maintained in 400 μg/mL G418 (Sigma Aldrich) for selection of transformants. […] All cell lines expressing S. mansoni GPCRs were then transfected with the GloSensor encoding plasmid p22F (Promega) and media was supplemented with 100 μg/mL hygromycin for stable expression (ThermoFisher).
(§1) Adherent HEK293 cells were seeded at a density of 5 x 10^4 cells/well (96-well plate) in Opti-MEM without FBS or antibiotics and incubated overnight at 37 °C and 5% CO2 prior to the assay. In place of the media, 100 μL HBSS supplemented with 0.1% bovine serum albumin (BSA), 500 μM 3-isobutyl-1-methylxanthine (IBMX, Sigma Aldrich), 20 mM HEPES (pH 7.4) and 1 mg/mL D-luciferin (Goldbio) was added to each well. After a 2 h incubation period at room temperature, luminescence background was recorded, and compounds and control ligands were added at 10X concentration. Immediately after compound addition, luminescence was read over a 45 min period to detect compounds stimulating cAMP release through receptor activation. […] For each assay, luminescence responses were recorded in triplicate and repeated with four independant cell batches. Compounds were also added to naïve Glo HEK293 cells (no receptor) and the robustness of the assay was calculated as: Z^'=1−3×(SDmax+SDmin)/Meanmax−Meanmin with max and min referring respectively to cells expressing GPCRs and Glo (no receptor) cells. Cellular viability was assessed using a CellTiter Glo 2.0 kit (Promega). Glo cells were exposed to 10 μM of each hit compound for 3 h in Opti-MEM at 37 °C, 5% CO2. An equimolar concentration of tamoxifen (Sigma Aldrich) was used as a positive control. 2X cell lysis media was then added and end-point luminescence recorded after a 10 min stabilization time.

schistosomulae [8] = tested on: schistosomulae; parameters: method as in Panic et al., 2015b; conditions: 72 h incubation at 10 μM; ref Panic et al., 2015b; cited from earlier work
Glo HEK293 cells = test: Cellular viability, CellTiter Glo 2.0; assay type: cell-based, human; conditions: 10 μM, 3 h
Protocol: as §1, with “An equimolar concentration of tamoxifen (Sigma Aldrich) was used as a positive control.” left out

adult schistosomes = tested on: adult schistosomes; parameters: method as in Neves et al., 2016; conditions: transient hyperactivity, ref Neves et al., 2016, cited from earlier work
proteasome = tested on: proteasome; parameters: method as in Bibo-Verdugo et al., 2019; conditions: in vitro; ref Bibo-Verdugo et al., 2019; cited from earlier work
schistosomes [9] = tested on: schistosomes; parameters: method as in Bibo-Verdugo et al., 2019; conditions: in vitro; ref Bibo-Verdugo et al., 2019; cited from earlier work
schistosomes [10] = tested on: schistosomes; parameters: method as in Marcellino et al., 2012; conditions: ref Marcellino et al., 2012; cited from earlier work
SmGPR2 = SmGPR2 (Schistosoma mansoni, UniProt G4VIY8); test: cell-based
SmGPR2, sequence (G4VIY8 entry or part of it): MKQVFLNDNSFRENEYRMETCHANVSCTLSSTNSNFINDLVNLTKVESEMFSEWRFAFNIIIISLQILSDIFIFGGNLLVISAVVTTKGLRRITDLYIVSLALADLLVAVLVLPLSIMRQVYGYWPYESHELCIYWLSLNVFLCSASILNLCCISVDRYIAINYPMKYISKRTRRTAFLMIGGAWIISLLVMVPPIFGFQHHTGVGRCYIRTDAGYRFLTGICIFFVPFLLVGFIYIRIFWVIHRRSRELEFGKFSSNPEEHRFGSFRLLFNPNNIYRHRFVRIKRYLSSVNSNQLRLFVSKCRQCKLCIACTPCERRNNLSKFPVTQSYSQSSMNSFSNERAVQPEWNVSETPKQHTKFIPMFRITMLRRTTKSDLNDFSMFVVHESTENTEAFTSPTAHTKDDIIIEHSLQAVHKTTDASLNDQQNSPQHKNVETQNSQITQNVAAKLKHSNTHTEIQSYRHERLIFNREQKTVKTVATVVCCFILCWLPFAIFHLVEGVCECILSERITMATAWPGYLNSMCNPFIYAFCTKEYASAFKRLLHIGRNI
Protocol: The SmGPR2 sequence previously identified ([El-Shehabi and Ribeiro, 2010]) was codon optimized for mammalian expression and subcloned in the vector pCI-neo (Addgene, USA) using the XbaI and NotI restriction enzymes. A FLAG fusion tag ([…]) was introduced at the N-terminal end of the receptor sequence. Stable transfection of HEK293 cells (ATCC; CRL-1573) was performed using the X-tremeGENE 9 DNA transfection reagent (Sigma Aldrich). Cells were then cultured at 37 °C, 5% CO2 in Opti-MEM supplemented with 5% FBS and maintained in 400 μg/mL G418 (Sigma Aldrich) for selection of transformants. […]
Adherent HEK293 cells were seeded at a density of 5 x 10^4 cells/well (96-well plate) in Opti-MEM without FBS or antibiotics and incubated overnight at 37 °C and 5% CO2 prior to the assay. […] After a 2 h incubation period at room temperature, luminescence background was recorded, and compounds and control ligands were added at 10X concentration. Immediately after compound addition, luminescence was read over a 45 min period to detect compounds stimulating cAMP release through receptor activation. […] For each assay, luminescence responses were recorded in triplicate and repeated with four independant cell batches. […] Cellular viability was assessed using a CellTiter Glo 2.0 kit (Promega). […] 2X cell lysis media was then added and end-point luminescence recorded after a 10 min stabilization time.

[11] = three-day-old schistosomulae, 10 μM, 24 h
[12] = 120 h, schistosomulae, secondary screen, 24h exposure, read at D5, 1 µM
[13] = schistosomulae, secondary screen, 24h exposure, read at D1, 1 µM
[14] = schistosomulae, 1h exposure, read at D1, 10 µM
[15] = schistosomulae, 1h exposure, read at D5, 10 µM
[16] = schistosomulae, 3h exposure, read at D1, 10 µM
[17] = schistosomulae, 3h exposure, read at D5, 10 µM
[18] = schistosomulae, 6h exposure, read at D1, 10 µM
[19] = schistosomulae, 6h exposure, read at D5, 10 µM
[20] = schistosomulae, secondary screen, 24h exposure, read at D1, 10 µM
[21] = schistosomulae, secondary screen, 24h exposure, read at D5, 10 µM

Structure (SMILES) | Phenotype [1, 11] | activity at 1 µM [2, 12] [%] | activity at 1 µM [2, 13] [%] | Fractional motility [2, 14] | Fractional motility [2, 15] | Fractional motility [2, 16] | Fractional motility [2, 17] | Fractional motility [2, 18] | Fractional motility [2, 19] | Fractional motility [2, 20] | Fractional motility [2, 21] | viability at 10 µM [3] [%] | motility phenotype in words (S. mansoni adult worms) | Fractional motility (S. mansoni adult worms; D1, Female adult worms) | Fractional motility (S. mansoni adult worms; D1, Male adult worms) | Fractional motility (S. mansoni adult worms; D5, Female adult worms) | Fractional motility (S. mansoni adult worms; D5, Male adult worms) | also measured
C=C1C(=O)O[C@H]2[C@H]1CC/C(C)=C/CC[C@@]1(C)O[C@@H]21 [(-)-Parthenolide] | big, dark, granulated | -16 | -3 | -0.61 | -0.72 | -0.27 | -0.10 | 3.66 | -0.86 | 0.67 | -0.99 | 0 | severely paralyzed adults | -0.36 | 0.14 | -0.65 | -0.34 | effect on viability of schistosomulae in words [1]: total schistosomulicid action; hypomotility (S. mansoni adult worms; adult male and female parasites, long-term): 49.5%; mortality (schistosomes [4]): 100%
CN(C)CCCN1c2ccccc2Sc2ccc(Cl)cc21 [Chlorpromazine] | elongated | 95 | 785 |  |  |  |  |  |  | 13.78 | 3.15 | 96 |  | 0.57 | 2.38 | -0.45 | 0.24 | hypermotility compared to control schistosomulae ([2]; 10 μM): > 10 fold; peak motility relative to control schistosomulae (schistosomulae [5]): exceeding 50 fold
CC(C)C[C@@H](C=O)NC(=O)[C@H](CC(C)C)NC(=O)[C@H](CC(C)C)NC(=O)OCc1ccccc1 [MG-132] (Cbz-Leu-Leu-Leu-aldehyde) |  |  |  |  |  |  |  |  |  |  |  |  |  |  |  |  |  | fewer parasites migrated to the lung compared to control animals (schistosomes [6]): 65%
O=[N+]([O-])C=Cc1ccc2c(c1)OCO2 [MNS, 3,4-methylenedioxy-β-nitrostyrene] | blebbing, dark, granulated | 103 | 241 | -0.95 | -0.06 | -0.96 | -0.87 | -0.83 | -0.87 | 2.46 | -0.0952 | 43 |  | -0.14 | -0.40 | -0.83 | -0.55 | inhibition of Sm5HTR 5-HT-evoked signals (Sm5HTR): ≥ 50%; effect on luminescence evoked by forskolin [7]: significant decrease in luminescence
COC(=O)C1=C(C)NC(C)=C(C(=O)OCCN2CCN(C(c3ccccc3)c3ccccc3)CC2)C1c1cccc([N+](=O)[O-])c1 (centres unmarked) [Manidipine] | abnormal morphology, big, granulated | -59 | -79 | -0.94 | -0.59 | -0.33 | -0.75 | -0.74 |  | -0.78 | -0.85 | 97 | strongly impaired movement | 0.19 | -0.20 | -0.91 | -0.98 | effect on viability of schistosomulae in words [1]: no larval mortality was observed; hypomotility ([2]; schistosomulae, all tested concentrations until five days after drug washout): ≥ 59%; motility in extended assay with reduced incubation times, in words ([2]; three-day old schistosomulae, incubation 1 h, 3 h, 6 h): significant and sustained hypomotility; activity on schistosomulae in words (schistosomulae [8]): schistosomulicidal
Cc1ccc(S(=O)(=O)c2ccc([N+](=O)[O-])o2)cc1 [NSC697923] | dark, granulated |  |  | -0.93 | -1.00 | -1.00 | -0.99 | -0.93 | -0.99 | 3.05 | -1.00 |  | Significant hypomotility | 0.25 | 0.30 | -0.95 | -0.78 | Viability (%) ([1]; three-day-old schistosomulae, 10 μM, 24 h, calculated 5 days post compound exposure): 0%; inhibition of Sm5HTR 5-HT-evoked signals (Sm5HTR): ≥ 50%; Fractional motility [2, 13]: -0.18; Fractional motility ([2]; schistosomulae, secondary screen, 24h exposure, read at D5, 1 µM): -0.90; effect on luminescence evoked by forskolin [7]: significant decrease in luminescence; reduction of ATP released by cells (Glo HEK293 cells): 48.1 ± 5.7%
Fc1ccc([C@@H]2CCNC[C@H]2COc2ccc3c(c2)OCO3)cc1 [Paroxetine] | granulated |  |  |  |  |  |  |  |  |  |  | 90 |  | 0.47 | 1.07 | -0.42 | -0.49 | activity at 1 µM ([2]; 120 h, Selleckchem customized library secondary screen, 24h, D5, 1 µM): 256%; Fractional motility ([2]; Selleckchem customized library secondary screen, 24h, D1, 10 µM): 55.45; Fractional motility ([2]; Selleckchem customized library secondary screen, 24h, D5, 10 µM): 1.54; motility phenotype in words ([2]; schistosomulae, after 24 h exposure): high levels of hypermotility; EC50 (adult schistosomes; female worms): 11.9 µM; EC50 (adult schistosomes; male worms): 2.7 µM
CC(C)C[C@H](NC(=O)[C@H](Cc1ccccc1)NC(=O)c1cnccn1)B(O)O [bortezomib] |  |  |  |  |  |  |  |  |  |  |  |  |  |  |  |  |  | reduction of proteasome activity (proteasome): > 75%; reduction of worm motility (schistosomes [9]): > 85%; motility reduction (schistosomes [10]): > 90%
CC(C)C[C@H](NC(=O)[C@H](CCc1ccccc1)NC(=O)CN1CCOCC1)C(=O)N[C@@H](Cc1ccccc1)C(=O)N[C@@H](CC(C)C)C(=O)[C@@]1(C)CO1 [carfilzomib] |  |  |  |  |  |  |  |  |  |  |  |  |  |  |  |  |  | reduction of proteasome activity (proteasome): > 75%; reduction of worm motility (schistosomes [9]): > 85%; motility reduction (schistosomes [10]): > 90%
NCCc1c[nH]cn1 [histamine] |  |  |  |  |  |  |  |  |  |  |  |  |  |  |  |  |  | EC50 (SmGPR2): 12.5 ± 1.5 µM
